Each structure is given as a SMILES string. Starred links: 1 amine or outer side, 2 acyl side, 3 side chain; linkers in the order of their positions; H or OH if unused. Positions of bridges follow the written chain, without caps; N, C: chain ends. Non-standard residues stand in square brackets, D forms with d. Residues, ends and D or L forms follow the SMILES beside them. Chains are numbered I, II in the order given. Actinocin(9to1) = Cc1c2oc3c(C)ccc(C(=O)[*:1])c3nc-2c(C(=O)[*:2])c(N)c1=O; NMeV = CN[C@H](C(=O)O)C(C)C; Sar = CNCC(=O)O

The subject of assay [1] is Mia PaCa-2. As to the kind of experiment: Soft agar growth assay (Alamar Blue), Example 2, Mia PaCa-2. The conditions noted are these: Mia PaCa-2, soft agar, 8 days. It is filed as cell-based, human. The method, then: (§1) A stock solutions (1,000×) of menadione (VK3) were prepared in DMSO and a stock solution of calcium L-ascorbate dihydrate (VC) (1,000×) was prepared in water. All stock solutions were prediluted 1:62.5 first in medium and finally diluted to the final assay concentrations. Actinomycin D was used as a reference.
(§2) Suspension cell culture plates (96-well) were prepared. The soft agar bottom layer (100 μL, 0.6% final concentration in complete medium) was poured and left to solidify. The soft agar top layer (50 μL, 0.4% final concentration) containing the corresponding cells and cell number were then added on top, solidified, and incubated overnight at 37° C., 10% CO2. Next day, the test compounds, DMSO, or actinomycin D were added at predetermined final concentrations. […] Finally, the assay was developed using Alamar Blue and upon 0.5-5 hrs of incubation at 37° C. and fluorescence intensity was determined (excitation: 560 nm; emission: 590 nm). […]
(§3) Raw data were converted into percent soft agar growth relative to high controls (solvent 0.2% DMSO) and low controls (10^−5M staurosporine), which were set to 100% and 0%, respectively. IC50 values were calculated using standard parameters based on the signal of the solvent control as top constraint (100% soft agar growth) and the signal of the Staurosporine control as bottom constraint (0% soft agar growth).

The subject of assay [2] is AsPC-1. The assay can be described thus: Soft agar growth assay (Alamar Blue), Example 2, AsPC-1. It is filed as cell-based, human. The conditions noted are these: AsPC-1, soft agar, 10 days. The procedure: as §1, §2, §3
Assay [3] concerns human pancreatic cancerous cell line MIA PaCa-2. As to the kind of experiment: Soft agar growth assay (Alamar Blue), Example 1. It is filed as cell-based. The conditions noted are these: 240 h, MIA PaCa-2, soft agar, 10 days. The procedure:
The effects of vitamins C and K3, alone or in combination, on pancreatic cancer were studied using human pancreatic cancerous cell line MIA PaCa-2. The pancreatic cancerous cells were cultured in DMEM containing 10% FCS and penicillin/streptomycin.
Vitamins C and K3 stock solutions in DMSO were prepared at a concentration of 2 M and 20 mM, respectively. Actinomycin D was used as a reference.
Prior to addition to the pancreatic cancerous cells, stock solutions of the test compounds (vitamins C and K3, and actinomycin D) were diluted in culture medium and 10 μL were added on top of 150 μL of solidified soft agar to diffuse into the soft agar in a 96-well plate. For each well in the 96-well plate, 100 μL of the soft agar bottom layer (0.6% final concentration in complete medium) was poured and left to solidify, and 50 μL of the soft agar top layer (0.4% final concentration) containing the pancreatic cancerous cells (about 5,000 cells/well) were then added on top, solidified. The 96-well plate was incubated overnight at 37° C., 10% CO2. The next day, the test compounds were added at the prescribed final concentrations into the inner wells of the plate. Subsequently, the assays were incubated in cell culture incubators for 10 days. […] Fluorescence intensity was then determined (excitation: 560 nm; emission: 590 nm). […]

Consider `Cc1c2oc3c(C)ccc(C(=O)N[C@@H]4C(=O)N[C@H](C(C)C)C(=O)N5CCC[C@H]5C(=O)N(C)CC(=O)N(C)[C@@H](C(C)C)C(=O)O[C@@H]4C)c3nc-2c(C(=O)N[C@@H]2C(=O)N[C@H](C(C)C)C(=O)N3CCC[C@H]3C(=O)N(C)CC(=O)N(C)[C@@H](C(C)C)C(=O)O[C@@H]2C)c(N)c1=O` [Actinomycin D] (I: T[dV]P[Sar][NMeV] / II: T[dV]P[Sar][NMeV]; ester I:1-I:C, II:1-II:C; linker I:N-II:N via Actinocin(9to1)), for which the IC50 in assay [1] stood at 0.4 nM; in assay [2] it was 2.7 nM.
Regarding `CC1=CC(=O)c2ccccc2C1=O` [Vitamin K3, 2-methyl-1,4-naphthoquinone], the viability at 0.6 µM in assay [3] (0.6 μM Vitamin K3 alone) came out at 103.2 ± 0.9%. In addition, in assay [3] (6 μM Vitamin K3 alone), the viability at 6 µM was determined as 90.2 ± 12.5%.

(Values after patent US20190054064A1, “VITAMIN C AND VITAMIN K COMPOUND FOR TREATING PANCREATIC CANCER” (IC-MedTech Corp., priority 2014, published 2019).)
